This passage reports IC50 results from patent US11827628B2, “Compositions and methods for inhibition of the JAK pathway” (Rigel Pharmaceuticals, Inc., priority 2005, dated 2023).

Each structure is given as a SMILES string. Structures can show the parent of a compound that is named as a salt. Where two headings read alike, the source gives them in different places.

The subject of experiment [1] is IL-4 stimulated expression of CD23 in human Ramos B cells (JAK-1 and JAK-3). Kind of experiment: Assay for Ramos B-Cell Line Stimulated with IL-4 (CD23 upregulation, FACS). In kind it is cell-based. As to conditions: read-out: IC50, Example 41. The method, boiled down: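 Human Ramos B cells in RPMI with 5% serum were pre-incubated with compound or DMSO for 1 h at 37 °C, then stimulated with IL-4 at a final 50 units/mL for 20-24 h. CD23 upregulation was measured by anti-CD23-PE staining and flow cytometry, and IC50 values were calculated.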

Experiment [2] concerns up-regulation of ICAM-1 (CD54) by IFNγ in U937 human monocytic cells. Description: U937 IFNγ ICAM1 FACS Assay. In kind it is cell-based. The settings on record: ICAM-1 expression by FACS, read-out: IC50, Example 44. The method, boiled down:
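U937 cells in 10% FCS RPMI were preincubated 30 min at 37 °C with an 8-point, 3-fold compound dilution series in duplicate, then stimulated with IFNγ for 18–24 h. Surface ICAM-1 was stained with APC anti-ICAM-1 and read by flow cytometry as geometric mean on live-gated cells. EC50 was derived.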
Background: Flow cytometry measures light scatter and fluorescence of single cells or particles in a stream.

[3] abbreviates: Homo sapiens, Ramos, Ramos B-cell line stimulated with IL-4, CD23 expression by FACS.
Where [4] appears, read: Homo sapiens, U-937, U937 cells stimulated with IFNγ.
Setting [5] is: Ramos B cells stimulated with IL-4, CD23 expression by FACS.
Where [6] appears, read: U937 cells stimulated with IFNγ.

What is called IC50 is the concentration at which inhibition is half-maximal. Regarding `Cc1ccc(Nc2ncc(F)c(Nc3ccc(CCC#N)c(Cl)c3)n2)cc1S(N)(=O)=O` [III-21, N2-(3-Aminosulfonyl-4-methylphenyl)-N4-[3-chloro-4-(2-cyanoethyl)phenyl]-5-fluoro-2,4-pyrimidinediamine], the results for the IC50 in experiment [1] (setting [3]) and in experiment [2] (setting [4]) were 30.3 nM and 339 nM, respectively.
With `N#CCCc1ccc(Nc2nc(Nc3cccc(S(N)(=O)=O)c3)ncc2F)cc1Cl` [III-22, N2-(3-Aminosulfonylphenyl)-N4-[3-chloro-4-(2-cyanoethyl)phenyl]-5-fluoro-2,4-pyrimidinediamine], the IC50 in experiment [1] (setting [3]) was 45.4 nM; in experiment [2] (setting [4]), 444 nM.
The matching figures for `Cc1ccc(Nc2ncc(F)c(Nc3ccc(CCOC(N)=O)cc3)n2)cc1S(N)(=O)=O` [III-53, N4-{4-[2-(Aminocarbonyloxy)ethyl]phenyl}-N2-(3-aminosulfonyl-4-methylphenyl)-5-fluoro-2,4-pyrimidinediamine]: 97.7 nM and 1130 nM.
The like results for `NC(=O)OCCc1ccc(Nc2nc(Nc3cccc(S(N)(=O)=O)c3)ncc2F)cc1` [III-54, N4-{4-[2-(Aminocarbonyloxy)ethyl]phenyl}-N2-(3-aminosulfonylphenyl)-5-fluoro-2,4-pyrimidinediamine] were, in that order, 135 nM and 1590 nM.
The like results for `CN(C)C(=O)OCCc1ccc(Nc2nc(Nc3cccc(S(N)(=O)=O)c3)ncc2F)cc1` [III-57, N2-(3-Aminosulfonylphenyl)-N4-{4-[2-(dimethylaminocarbonyloxy)ethyl]phenyl}-5-fluoro-2,4-pyrimidinediamine] were, in that order, 53.6 nM and 838 nM.
Turning to `CNC(=O)OCCc1ccc(Nc2nc(Nc3cccc(S(N)(=O)=O)c3)ncc2F)cc1` [III-60, N2-(3-Aminosulfonylphenyl)-5-fluoro-N4-{4-[2-(methylaminocarbonyloxy)ethyl]phenyl}-2,4-pyrimidinediamine], the results for the IC50 in experiment [1] (setting [3]) and in experiment [2] (setting [4]) were 135 nM and 1010 nM, respectively.
The like results for `COc1ccc(Nc2ncc(F)c(Nc3ccc(Cc4ccncc4)cc3)n2)cc1S(N)(=O)=O` [III-66, N2-(3-Aminosulfonyl-4-methoxyphenyl)-5-fluoro-N4-[4-(4-pyridinylmethyl)phenyl]-2,4-pyrimidinediamine] were, in that order, 142 nM and 967 nM.
For `NS(=O)(=O)c1ccc(Nc2ncc(F)c(Nc3ccc(Cc4ccncc4)cc3)n2)cc1` [III-71, N2-(4-Aminosulfonylphenyl)-5-fluoro-N4-[4-(4-pyridinylmethyl)phenyl]-2,4-pyrimidinediamine], the IC50 in experiment [1] (setting [3]) was 97.9 nM; in experiment [2] (setting [4]), 1700 nM.
Regarding `Cc1ccc(Nc2ncc(F)c(Nc3ccc(Cc4ccncc4)cc3)n2)cc1S(N)(=O)=O` [III-74, N2-(3-Aminosulfonyl-4-methylphenyl)-5-fluoro-N4-[4-(4-pyridinylmethyl)phenyl]-2,4-pyrimidinediamine], the figures for the IC50 in experiment [1] (setting [3]) and in experiment [2] (setting [4]) were 95.2 nM and 935 nM, respectively.
Take `NS(=O)(=O)c1cccc(Nc2ncc(F)c(NCCc3ccc(-c4ccncc4)cc3)n2)c1` [III-76, N2-(3-Aminosulfonylphenyl)-5-fluoro-N4-[4-(4-pyridinyl)phenethyl]-2,4-pyrimidinediamine]: the IC50 was determined as 104 nM in experiment [1] (setting [3]) and 447 nM in experiment [2] (setting [4]).
For `Cc1ccc(Nc2ncc(F)c(NCCc3ccc(-c4ccncc4)cc3)n2)cc1S(N)(=O)=O` [III-77, N2-(3-Aminosulfonyl-4-methylphenyl)-5-fluoro-N4-[4-(4-pyridinyl)phenethyl]-2,4-pyrimidinediamine], the results for the IC50 in experiment [1] (setting [3]) and in experiment [2] (setting [4]) were 177 nM and 681 nM, respectively.
The like results for `NS(=O)(=O)c1cccc(Nc2ncc(F)c(NCCc3ccc(-n4ccnc4)cc3)n2)c1` [III-87, N2-(3-Aminosulfonylphenyl)-5-fluoro-N4-[4-(1-imidazolyl)phenethyl]-2,4-pyrimidinediamine] were, in that order, 141 nM and 2950 nM.
The like results for `Cc1ccc(Nc2ncc(F)c(NCCc3ccc(-n4ccnc4)cc3)n2)cc1S(N)(=O)=O` [III-88, N2-(3-Aminosulfonyl-4-methylphenyl)-5-fluoro-N4-[4-(1-imidazolyl)phenethyl]-2,4-pyrimidinediamine] were, in that order, 141 nM and 2040 nM.
As for `NS(=O)(=O)c1cccc(Nc2ncc(F)c(Nc3ccc(Cn4cncn4)cc3)n2)c1` [III-100, N2-(3-Aminosulfonylphenyl)-5-fluoro-N4-{4-[1-(1,2,4-thazolyl)methyl]phenyl}-2,4-pyrimidinediamine], the IC50 in experiment [1] (setting [5]) was 162 nM; in experiment [2] (setting [6]) it was 1910 nM.
The like results for `NS(=O)(=O)c1cccc(Nc2ncc(F)c(Nc3ccc(CN4CCOCC4)cc3)n2)c1` [III-103, N2-(3-Aminosulfonylphenyl)-5-fluoro-N4-(4-N-morpholinomethylenephenyl)-2,4-pyrimidinediamine] were, in that order, 230 nM and 2430 nM.
The matching figures for `Cc1ccc(Nc2ncc(F)c(Nc3ccc(CN4CCOCC4)cc3)n2)cc1S(N)(=O)=O` [III-104, N2-(3-Aminosulfonyl-4-methylphenyl)-5-fluoro-N4-(4-N-morpholinomethylenephenyl)-2,4-pyrimidinediamine]: 242 nM and 2160 nM.
The matching figures for `Cc1noc(CCc2ccc(Nc3nc(Nc4cccc(S(N)(=O)=O)c4)ncc3F)cc2)n1` [III-106, N2-(3-Aminosulfonylphenyl)-5-fluoro-N4-[4-(3-methyl-1,2,4-oxadiazol-5-yl)ethylenephenyl]-2,4-pyrimidinediamine]: 42.8 nM and 492 nM.
On to `COc1ccc(Nc2ncc(F)c(Nc3ccc(CN4CCSCC4)cc3)n2)cc1S(N)(=O)=O` [III-109, N2-(3-Aminosulfonyl-4-methyoxyphenyl)-5-fluoro-N4-(4-thiomorpholinomethylenephenyl)-2,4-pyrimidinediamine], for which the IC50 was found to be 143 nM in experiment [1] (setting [5]) and 531 nM in experiment [2] (setting [6]).
The like results for `NS(=O)(=O)c1cccc(Nc2ncc(F)c(Nc3ccc(CN4CCS(=O)(=O)CC4)cc3)n2)c1` [III-110, N2-(3-Aminosulfonylphenyl)-5-fluoro-N4-{4-[(1,1-dioxothiomorpholin-4-yl-)methyl]phenyl}-2,4-pyrimidinediamine] were, in that order, 247 nM and 13600 nM.
Turning to `Cc1ccc(Nc2ncc(F)c(Nc3ccc(CN4CCS(=O)(=O)CC4)cc3)n2)cc1S(N)(=O)=O` [III-111, N2-(3-Aminosulfonyl-4-methylphenyl)-5-fluoro-N4-{4-[(1,1-dioxothiomorpholin-4-yl-)methyl]phenyl}-2,4-pyrimidinediamine], the IC50 in experiment [1] (setting [5]) amounted to 321 nM; in experiment [2] (setting [6]) it was 5340 nM.
The like results for `NS(=O)(=O)c1cccc(Nc2ncc(F)c(Nc3ccc(Cc4ccncc4)cc3)n2)c1` [III-129, N2-(3-Aminosulfonylphenyl)-5-fluoro-N4-[4-(4-pyridylmethyl)phenyl]-2,4-pyrimidinediamine Methanesulfonic Acid Salt] were, in that order, 174 nM and 1190 nM.
The matching figures for `CNS(=O)(=O)c1cc(Nc2ncc(F)c(Nc3cccc(-c4cnco4)c3)n2)ccc1C` [IV-4, 5-Fluoro-N2-[3-(N-methylaminosulfony)-4-methylphenyl]-N4-[3-(1,3-oxazol-5-yl)phenyl]-2,4-pyrimidinediamine]: 151 nM and 2420 nM.
